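These data come from cells grown in 96-well plates and exposed to compound for 48 hours at five concentrations. GI50 is the concentration that inhibits growth by half.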 Calls of active or inactive are those of the source. Rule as the data show it: active = GI50 up to about 1.1 µM and inactive = higher.
Experiments:
Assay in all cases: NCI-60 cell line screen, 48 h
DMS-114 = system: DMS-114
HOP-18 = system: HOP-18
HOP-92 = system: HOP-92
KM-20L2 = system: KM-20L2
LXFL 529 = system: LXFL 529
DLD-1 = system: DLD-1
M19-MEL = system: M19-MEL

SMILES | GI50 (DMS-114) | GI50 (HOP-18) | GI50 (HOP-92) | GI50 (KM-20L2) | GI50 (LXFL 529) | GI50 (DLD-1) | GI50 (M19-MEL)
CCOC(=O)C(C(=O)OCC)c1cc(-c2cc3ccccc3o2)oc(=O)c1C#N | 26.7 µM (inactive) | 16 µM (inactive) | 3.41 µM (inactive) | 19.3 µM (inactive) | 20.4 µM (inactive) | – | –
Brc1ccccc1-c1ncc(-c2ccccc2)o1 | – | – | 17.8 µM (inactive) | – | – | – | –
O=C(NC(Cc1ccc(I)cc1)C(=O)O)c1ccc(Br)cc1 (centres undefined) | 66.2 µM (inactive) | > 100 µM (inactive) | 76.7 µM (inactive) | > 100 µM (inactive) | – | > 100 µM (inactive) | > 82.2 µM (inactive)
O=c1c(-c2ccccc2)c(SCCN2CCCCCC2)n(-c2ccccc2)c(=S)n1-c1ccccc1 | – | – | 15.2 µM (inactive) | – | – | – | –
CC1=CC[C@H](C)C(C)(C)C1/C=C/C(C)=C/CC[C@@]1(CO)[C@H](CCCO)/C(=C(/C)C=O)CC[C@]1(C)O (some centres undefined) | – | 15.5 µM (inactive) | < 0.01 µM (active) | 1.82 µM (inactive) | 7.62 µM (inactive) | 3.53 µM (inactive) | 17.2 µM (inactive)

Reference: ChEMBL document CHEMBL1201862, “PubChem BioAssay data set” (2004)
